The source of these data is article PMC11215771 (Journal of Medicinal Chemistry, 2024).

In series [1] the target is T1, recombinant BACE1 extracellular domain (Homo sapiens, UniProt P56817).
T1 construct: purchased Thermo Fisher Scientific P2985
Put plainly: FRET-based BACE1 inhibition (BACE1-activity FRET) assay. It is filed as biochemical. The protocol: In addition, we performed a fluorescence resonance energy transfer (FRET)-based BACE1 inhibition assay using the recombinant BACE1 extracellular domain and a BACE1 substrate coupled to a donor fluorophore, which is unquenched […] to the activity of BACE1. […] (Figure 1F).
Protease activity was determined using a FRET-based assay with recombinant BACE1 protein (Thermo Fisher Scientific; P2985). BACE1 inhibition was determined in end-points assays according to the manufacturer’s protocol except using a reduced volume of 12 μL in 384-well plates (Greiner, 788896). […] Fluorescence intensities were quantified with an infinite 200pro reader (Tecan) using top-reading mode. Data points were approximated using a logistic fit to determine half-inhibitory concentrations (pIC50).

The target in series [2] is T2, hBACE2 fused to EGFP in HEK293T cells (Homo sapiens, UniProt Q9Y5Z0).
T2 construct: expressed in transfected cells; host or cells: HEK293T
T2 sequence (Q9Y5Z0 63-518): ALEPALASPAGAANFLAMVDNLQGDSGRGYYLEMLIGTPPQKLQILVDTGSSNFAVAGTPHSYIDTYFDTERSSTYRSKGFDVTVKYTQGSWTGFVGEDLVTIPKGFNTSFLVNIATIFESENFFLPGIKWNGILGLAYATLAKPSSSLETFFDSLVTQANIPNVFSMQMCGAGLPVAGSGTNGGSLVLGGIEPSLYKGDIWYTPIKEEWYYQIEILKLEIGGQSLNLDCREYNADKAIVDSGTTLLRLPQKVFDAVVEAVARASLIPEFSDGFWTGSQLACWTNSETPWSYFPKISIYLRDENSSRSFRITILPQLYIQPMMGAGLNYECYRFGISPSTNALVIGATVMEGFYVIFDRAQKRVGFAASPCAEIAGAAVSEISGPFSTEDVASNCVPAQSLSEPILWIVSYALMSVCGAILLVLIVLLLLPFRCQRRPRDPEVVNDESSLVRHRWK
In words: Staining of transfected HEK293T cells, confocal imaging: BACE2. It is filed as cell-based. The protocol: Next, we explored the performance of the new Alexa-C3 compounds in living cells. Because of the rather hydrophilic properties, we exclusively targeted the cell membrane. To prevent intracellular accumulation, we first performed stainings at 4 °C arresting ATP-dependent endocytosis. […] All of the constructs were tagged at the C-terminus with either EGFP or mCherry to visualize subcellular expression. […] With these experiments, we want to exclude that a lack of staining is caused by an impaired accessibility of the protein by Alexa-C3 compounds. […] We then tested samples with BACE1 expression after fixation of the cells with paraformaldehyde (PFA).
(D) All conjugates were also probed on cells fixed with 4% paraformaldehyde (PFA) for 15 min prior to staining. […] Scale bars represent 5 μm (A–D) and 20 μm (E). […] Samples were excited at 488, 561, and 633 nm, respectively.
HEK293T cells (ATCC accession number CRL-11268) were maintained in Dulbecco's modified Eagle's medium (Sigma-Aldrich D6046) with 1g/L glucose, supplemented with 10% FCS (Merck) and 1% penicillin/streptomycin (PAA). CHO-K1 cells (ATCC #CCL-61) were maintained in modified phenol red free RPMI-1640 medium (Sigma-Aldrich, R7509), supplemented with 2 mM L-glutamine (Sigma-Aldrich, G7513), and 10% FCS (Merck). Cells were cultured at 37 °C in a 5% CO2 atmosphere. […]

Series [3] in a line: FCS of free Alexa-C3 in HBS in the absence of BACE1. The conditions noted are these: 100 nM in HBS, pH 5, no BACE1, mean ± SD.
The nature of series [4]: Fluorescence spectroscopy, sensitivity to BSA and Expi293F cells. The following applies: mock Expi293F cells in fluorobrite vs PBS alone.
Procedure: Emission and excitation spectra of all compounds were determined at a concentration of 33 nM in phosphate buffered saline (PBS) using an infinite 200pro (Tecan) with a resolution of 2 nm. […] For sensitivity assessment, we used PBS, PBS + BSA (0.05%), and Expi293F cells in fluorobrite (2 × 10^6 cells/mL).
The target of series [5] is BACE-1 (mouse Protein, recombinant) (Mus musculus, UniProt P56818). Put plainly: Nanotemper (Monolith NT.115) binding analysis.
Procedure: For binding analysis, the Monolith NT.115 (Nanotemper) was used. BACE-1 (mouse Protein, recombinant, life technologies, 50002-M08H-250, LCL10JA2204)) was dissolved in 50 mM HEPES/100 mM NaCl, pH 5 to a concentration of 20 μM. […] Samples were loaded on standard capillaries (Nanotemper, MO-K022) and measured in triplicate at 22 °C, using 1%/60% LED power for Alexa488/Alexa568 and 10% MST power. Fluorescence was plotted against protein concentrations.

Where “and” joins values, the source holds several entries; their conditions need not be identical. Equal entries are not always repeated.

Broadly, the Kd is the constant that tells how readily two partners part at equilibrium.

T1 sequence (P56817 46-457 limits assumed): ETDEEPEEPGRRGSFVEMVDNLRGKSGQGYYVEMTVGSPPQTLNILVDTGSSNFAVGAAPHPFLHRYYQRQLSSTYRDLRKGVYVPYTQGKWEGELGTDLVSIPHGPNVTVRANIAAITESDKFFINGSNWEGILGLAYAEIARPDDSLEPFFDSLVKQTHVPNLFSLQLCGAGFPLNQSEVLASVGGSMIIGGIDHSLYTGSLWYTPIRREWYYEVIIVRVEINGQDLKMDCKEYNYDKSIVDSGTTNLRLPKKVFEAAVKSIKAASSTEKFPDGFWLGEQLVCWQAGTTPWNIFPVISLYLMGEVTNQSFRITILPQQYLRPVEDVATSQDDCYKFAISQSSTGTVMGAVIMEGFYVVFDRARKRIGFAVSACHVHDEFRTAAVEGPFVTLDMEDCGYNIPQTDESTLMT
BACE-1 (mouse Protein, recombinant), sequence (P56818 46-457 limits assumed): as the sequence (P56817 46-457 limits assumed) above, with P6S, V162I, L165I, S180T, V182A, I340V, L393A counted along it

As for `C[C@@H](NC(=O)c1cc(C(=O)N[C@@H](Cc2ccccc2)[C@H](O)CNC2CC2)cc(N(C)S(=O)(=O)CCCNC(=O)CCCCCC2(C)C(/C=C/C=C/C=C3/N(CCCS(=O)(=O)O)c4ccc(S(=O)(=O)O)cc4C3(C)C)=[N+](CCCS(=O)(=O)[O-])c3ccc(S(=O)(=O)O)cc32)c1)c1ccccc1` (stereo partly shown), in series [1] (compared with unconjugated C3), the “impairment of affinity to the catalytic center by dye attachment” value was 10 fold. Further, the “pIC50 (negative logarithm of the half-inhibitory concentration)” value in series [1] (logistic fit, n = 3 for each compound) was 6.53 (95% CI: 6.05–7.05). Further, in series [2], the “staining of BACE2” value is “not labeled”. In series [3], the “diffusion time constant of free probe” value was 53 ± 18 μs. In addition, in series [4], the “increase of fluorescent output in presence of Expi293F cells” value is given as “+8%”.
As to `C[C@@H](NC(=O)c1cc(C(=O)N[C@@H](Cc2ccccc2)[C@H](O)CNC2CC2)cc(N(C)S(=O)(=O)CCCNC(=O)c2ccc(C(=O)O)c(-c3c4ccc(=N)c(S(=O)(=O)O)c-4oc4c(S(=O)(=O)O)c(N)ccc34)c2)c1)c1ccccc1` [2-(6-Amino-3-iminio-4,5-disulfo-3H-xanthen-9-yl)-4-((3-(N-(3-(((2S,3R)-4-(cyclopropylamino)-3-hydroxy-1-phenylbutan-2-yl)carbamoyl)-5-(((R)-1-phenylethyl)carbamoyl)phenyl)-N-methylsulfamoyl)propyl)carbamoyl)benzoate], the “increase of potency of the pIC50 in a cell-free assay vs parent C3” value in series [1] (compared with unconjugated C3) was 10 fold. The IC50 in series [1] (logistic fit, n = 3 for each compound, read-out: pIC50 (negative logarithm of the half-inhibitory concentration) (converted)) was 1.86 nM. Further, in series [5], the Kd was 1000 nM. Moreover, the “fluorescence reading, single replicates” value in series [5] (BACE1 concentration 0.305 (unit not given; 0.3–5000 nM), triplicate) is 995.235 and 994.451 and 995.188; in series [5] (BACE1 concentration 0.61, triplicate), 995.092 and 995.228 and 995.025; in series [5] (BACE1 concentration 1.221, triplicate) it was 995.123 and 995.217 and 995.055; in series [5] (BACE1 concentration 2.441, triplicate), 994.777 and 994.504 and 994.766; in series [5] (BACE1 concentration 4.883, triplicate), 994.407 and 994.774 and 995.083; in series [5] (BACE1 concentration 9.766, triplicate) it was 995.092 and 994.263 and 994.945. Also, the “fluorescence reading, single replicates” value in series [5] (BACE1 concentration 19.531, triplicate) was 994.925 and 994.824 and 995.417; in series [5] (BACE1 concentration 39.062, triplicate), 994.869 and 994.87 and 995.275; in series [5] (BACE1 concentration 78.125, triplicate) it was 995.397 and 995.08 and 995.109; in series [5] (BACE1 concentration 156.25, triplicate) it was 995.324 and 994.996 and 995.206; in series [5] (BACE1 concentration 312.5, triplicate) it was 995.935 and 995.418 and 995.988; in series [5] (BACE1 concentration 625, triplicate), 996.951 and 996.59 and 996.649. For the same molecule, the “fluorescence reading, single replicates” value was 999.327 and 998.59 and 999.026 in series [5] (BACE1 concentration 1250, triplicate); 1002.784 and 1002.705 and 1002.138 in series [5] (BACE1 concentration 2500, triplicate); 1000.96 and 1001.179 and 1001.396 in series [5] (BACE1 concentration 5000, triplicate). Further, the “diffusion time constant of free probe” value in series [3] turned out to be 35 ± 3 μs. For the same molecule, in series [4], the “increase of fluorescent output in presence of Expi293F cells” value is “+25%”.
